ChEMBL document CHEMBL6074678, “Selectively Antagonizing the NOD1-Mediated Inflammatory Signaling Pathway Mitigates the Gastric Inflammation Induced by Helicobacter pylori Infection” (J Med Chem, 2024)
Calls of active or inactive are those of the source. The rule behind the calls is not given here.

Experiments:
[1] = Cytotoxicity against HEK-Blue hNOD1 cells by SRB assay; type: toxicity, cell-based; settings: human
[2] = Anti-inflammatory activity in mouse BMDM cells assessed as decrease in IL-6 mRNA level at 0.1 uM pretreated for 1 hr followed by C12-iE-DAP stimulation for 2 hrs by RT-qPCR analysis relative to control; type: functional; design: scale not given: the % may be the effect or the level left; settings: time 3 hrs
[3] = Half life in C57BL/6 mouse at 20 mg/kg, po by LC-MS/MS analysis; type: ADME, organism-based; settings: in vivo
[4] = AUC (infinity) in C57BL/6 mouse at 20 mg/kg, po by LC-MS/MS analysis; type: ADME, organism-based; settings: in vivo
[5] = Anti-inflammatory activity in mouse BMDM cells assessed as decrease in TNF-alpha mRNA level at 0.1 uM pretreated for 1 hr followed by C12-iE-DAP stimulation for 2 hrs by RT-qPCR analysis relative to control; type: functional; design: scale not given: the % may be the effect or the level left; settings: time 3 hrs
[6] = Clearance in C57BL/6 mouse at 2 mg/kg, iv by LC-MS/MS analysis; type: ADME, organism-based; settings: in vivo
[7] = target: T1, Nucleotide-binding oligomerization domain-containing protein 1 (Homo sapiens) (UniProt Q9Y239); test: Antagonist activity at human NOD1 expressed in HEK-Blue cells assessed as decrease in SEAP secretion incubated for 3 hrs followed by C12-iE-DAP stimulation for 20 hrs by spectrophotometry; type: cell-based; settings: HEK-Blue hNOD1, filed as antagonist, time 23.0 hrs
T1 sequence (whole entry): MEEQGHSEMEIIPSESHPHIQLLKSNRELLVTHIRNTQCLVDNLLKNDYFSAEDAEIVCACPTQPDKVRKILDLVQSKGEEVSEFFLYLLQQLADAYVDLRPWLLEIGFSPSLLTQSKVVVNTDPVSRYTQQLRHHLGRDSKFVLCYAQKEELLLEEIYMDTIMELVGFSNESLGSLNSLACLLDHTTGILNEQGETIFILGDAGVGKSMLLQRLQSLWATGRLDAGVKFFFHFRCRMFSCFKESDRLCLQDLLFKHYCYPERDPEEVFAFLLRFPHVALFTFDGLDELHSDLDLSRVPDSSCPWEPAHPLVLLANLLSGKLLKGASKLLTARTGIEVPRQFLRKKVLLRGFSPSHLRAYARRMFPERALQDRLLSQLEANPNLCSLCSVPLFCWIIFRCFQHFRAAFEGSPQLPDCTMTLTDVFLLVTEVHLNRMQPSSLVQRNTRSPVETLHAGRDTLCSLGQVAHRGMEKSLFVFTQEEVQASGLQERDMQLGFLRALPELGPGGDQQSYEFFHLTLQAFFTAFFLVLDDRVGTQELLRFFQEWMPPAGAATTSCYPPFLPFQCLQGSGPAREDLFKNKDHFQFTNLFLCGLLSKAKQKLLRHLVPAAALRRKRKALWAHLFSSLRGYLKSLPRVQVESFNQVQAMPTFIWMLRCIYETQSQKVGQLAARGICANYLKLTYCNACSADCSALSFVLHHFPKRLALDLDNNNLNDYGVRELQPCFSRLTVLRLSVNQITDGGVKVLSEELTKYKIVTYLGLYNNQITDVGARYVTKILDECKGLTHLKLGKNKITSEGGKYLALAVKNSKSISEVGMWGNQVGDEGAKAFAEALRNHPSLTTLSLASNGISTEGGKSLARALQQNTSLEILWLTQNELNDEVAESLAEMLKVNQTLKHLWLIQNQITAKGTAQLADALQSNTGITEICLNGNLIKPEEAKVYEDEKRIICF

[8] = test system: BMDM; test: Anti-inflammatory activity in mouse BMDM cells assessed as decrease in CXCL8 mRNA level at 1 to 5 uM pretreated for 1 hr followed by infection with Helicobacter pylori for 2 hrs by RT-qPCR analysis; type: functional, cell-based; settings: dose 1-5 µM, time 3.0 hrs
[9] = test system: THP-1; test: Anti-inflammatory activity in human THP-1 cells assessed as decrease in IL-6 mRNA level at 0.1 uM pretreated for 1 hr followed by C12-iE-DAP stimulation for 2 hrs by RT-qPCR analysis relative to control; type: functional; design: scale not given: the % may be the effect or the level left; settings: time 3 hrs
[10] = test system: Mus musculus; test: Anti-inflammatory activity in C57BL/6 mouse assessed as inhibition in serum keratinocyte chemoattractant level at 12.5 to 50 mg/kg, po pretreated with compound for 15 mins followed by C12-iE-DAP administration measured after 2 hrs by ELISA relative to control; type: functional; settings: dose 12.5-50 mg/kg, time 135 min, 2.25 h
[11] = Cmax in C57BL/6 mouse at 20 mg/kg, po by LC-MS/MS analysis; type: ADME, organism-based; settings: in vivo
[12] = AUC (infinity) in C57BL/6 mouse at 2 mg/kg, iv by LC-MS/MS analysis; type: ADME, organism-based; settings: in vivo
[13] = target: T2, Nucleotide-binding oligomerization domain-containing protein 1 (Mus musculus) (UniProt Q8BHB0); test: Antagonist activity at NOD1 in mouse BMDM cells assessed as decrease in phosphorylated RIP2 level at 0.1 to 1 uM incubated for 1 hr followed by C12-iE-DAP stimulation for 30 mins by Western blot analysis; type: cell-based; settings: filed as antagonist, dose 0.1-1 µM, time 1.5 hrs
T2 sequence (whole entry): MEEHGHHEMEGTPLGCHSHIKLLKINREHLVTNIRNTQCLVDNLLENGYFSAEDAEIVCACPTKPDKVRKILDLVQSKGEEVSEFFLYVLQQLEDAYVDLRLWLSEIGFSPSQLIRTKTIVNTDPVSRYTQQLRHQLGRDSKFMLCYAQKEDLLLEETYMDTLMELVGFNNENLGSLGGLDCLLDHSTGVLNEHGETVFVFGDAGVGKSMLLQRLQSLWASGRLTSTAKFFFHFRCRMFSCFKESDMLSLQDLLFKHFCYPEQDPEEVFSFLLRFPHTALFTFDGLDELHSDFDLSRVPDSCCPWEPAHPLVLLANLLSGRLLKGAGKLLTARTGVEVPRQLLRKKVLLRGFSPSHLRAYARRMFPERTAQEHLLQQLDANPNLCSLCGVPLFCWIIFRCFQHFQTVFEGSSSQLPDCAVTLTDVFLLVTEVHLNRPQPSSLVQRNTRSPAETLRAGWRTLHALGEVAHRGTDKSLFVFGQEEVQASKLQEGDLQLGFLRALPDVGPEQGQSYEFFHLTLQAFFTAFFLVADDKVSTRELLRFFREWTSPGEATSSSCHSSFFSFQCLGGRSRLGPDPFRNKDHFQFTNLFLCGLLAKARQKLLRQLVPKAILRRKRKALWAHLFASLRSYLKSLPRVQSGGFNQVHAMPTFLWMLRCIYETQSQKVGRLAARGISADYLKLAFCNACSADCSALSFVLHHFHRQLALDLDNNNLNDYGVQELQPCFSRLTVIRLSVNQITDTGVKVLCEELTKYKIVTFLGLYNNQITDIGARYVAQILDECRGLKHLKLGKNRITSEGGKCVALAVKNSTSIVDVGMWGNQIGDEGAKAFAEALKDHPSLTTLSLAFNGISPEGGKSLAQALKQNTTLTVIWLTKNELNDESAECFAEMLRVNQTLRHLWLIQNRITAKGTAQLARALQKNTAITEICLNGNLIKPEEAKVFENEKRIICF

Compound: CS(=O)(=O)c1ccc2nc(Cl)n(-c3ccc(Cl)c(NS(=O)(=O)c4c(F)cccc4F)c3)c(=O)c2c1
- Activity [1]: Non-toxic
- Activity [2]: ~100%
- half-life [3]: 3.15 h
- AUC(0-inf) [4]: 35.9 ng·h/mL
- Activity [5]: ~100%
- clearance [6]: 474 mL/min/kg
- Activity [7]: Dose-dependent-effect
- Activity [8]: Active
- Activity [9]: ~100%
- inhibition (INH) [10]: ~77%
- Cmax [11]: 44.6 ng/mL
- AUC [12]: 75.3 ng·h/mL
- inhibition [13]: Active
